Results taken from EP0728482A2, “Use of hcp specific compounds to enhance erythropoiesis” (SMITHKLINE BEECHAM CORPORATION, priority 1995, dated 1996).
“Also recorded” adds a separate entry of the source.

Columns and labels:
human src SH2 domain = target: T1, human src SH2 domain (Homo sapiens, UniProt P12931); experiment: ELISA-based SH2 domain / pY peptide binding assay, src SH2 domain; details: for Ki: Ki calculated from IC50 with the expanded equation; for IC50: inhibition of binding of 0.1 uM biotinylated pY peptide to SH2 domain fusion protein
T1 construct: made in house; host or cells: E. coli AR120
Experimental: (§1) The inhibitory activity of compounds at the different human SH2 domains was determined in vitro using SH2 domains expressed as fusion proteins in E. coli. The SH2 domains used herein were the human forms of the src SH2 domain, Grb2 SH2 domain, lck SH2 domain, fyn SH2 domain, SH-PTP2 SH2 domain, p85 SH2 domain and hcp SH2 domain.
The fusion proteins containing the src, lck and hcp SH2 domains were expressed as the general sequence: DET1-DET2-spacer-ek-SH2, where DET1, DET2, spacer, ek and SH2 are as described below. DET1 ("defined epitope tag 1") (SEQ ID NO: 1) is an 11 amino acid sequence found in the Human Immunodeficiency Virus Type 1 (HIV-1) envelope protein gp120 (or gp160). Monoclonal antibodies to various epitopes of HIV-1 gp120 (or gp 160) are known in the art, see, for example U.S. Patent 5,166,050. One preferred example is monoclonal antibody 178.1 (see, e.g., Thiriart et al., J. Immunol., 143:1832-1836 (1989)), which was prepared by immunization of mice with a yeast-expressed HIV-1 gp160 molecule from strain BH10 (Ratner et al., Nature, 313:277-284 (1985)). This tag was used for detection of expression (by Western blot), for purification of the protein (by affinity chromatography), and for configuring assays in which the fusion protein was captured or immobilized using the 178.1 antibody. DET2 is a hexa-histidine sequence tag (SEQ ID NO: 2) which binds to nickel-containing resins and was used for purification purposes. Spacer (SEQ ID NO: 3) was utilized to design a BamH1 restriction site at the indicated position of the construct. The term -ek-refers to a recognition sequence (SEQ ID NO: 4) for the enterokinase protease which provides for the optional removal of the tags from the SH2 domain, thus producing an SH2 domain that contains no extraneous amino acids. SH2 domains which contain no extraneous amino acids are preferable to tagged protein for crystallography studies. SH2 refers to the SH2 domains of different proteins.
Procedure 2: Cloning, expression and purification of human src SH2 domain containing tags and an enterokinase proteolytic cleavage site (DET1-DET2-spacer-ek-src SH2).
A DNA sequence encoding protein ek-src SH2 was PCR amplified from a cDNA clone containing the human src gene (c-src SH2 DNA sequence identical to that described in Takeya,T. and Hanafusa, H, 1983 Cell 32:881-890) using the following primers: [formula]
The PCR product was digested with BamHI and XbaI, followed by isolation of the digested fragment on an agarose gel. The fragment was ligated into BamHI-XbaI-digested expression vector containing the tagged chicken src gene DET1-DET2-spacer-SH2 described in Procedure 1 above. In that vector, the BamHI site is located between the coding regions for DET2 and SH2, and the XbaI site is located after the 3' end of the SH2 coding region. The ligation reaction was used to transform E. coli MM294cI^+. The construct DET1-DET2-spacer-ek-src SH2 was confirmed by DNA sequencing (SEQ ID NO: 5) and induced in E. coli strain AR120 as described in Procedure 1 above. A Coomassie-Blue-stained, Western-blot-positive induced protein band with an apparent molecular weight of 16,000 was observed after nalidixic acid induction.
Cells were lysed at neutral pH by sonication in the presance of lysozyme. After centrifugation, the soluble extract was chromatographed on a Ni^++NTA column. After washing the column with equilibration buffer (Tris buffer pH 8 containing 0.5 M Nacl) and the same buffer containing 15 mM imidazole, the protein was eluted in highly purified form with 25 mM imidazole in equilibration buffer.
The binding assays for the SH2 domains and pY peptides were performed in an ELISA-based 96 well plate assay. […]

B6D2F1 female mice = experiment: murine reticulocyte assay (Hayakawa assay); assay type: in vivo; details: oral gavage, once a day for 7 days
Experimental: The efficacy of hcp SH2 domain antagonist to enhance erythropoiesis is related to their ability to increase reticulocyte production in the murine reticulocyte assay (Hayakawa T, et al. Biologicals 20; 253 (1992) and Hayakawa T, et al. Biologicals 20; 243 (1992), (collectively hereinafter 'Hayakawa')).
L-3,5-Dibromo-3'-(6-oxo-3(1H)-pyridazinylmethyl)-thyronine (Compound 2) was tested for its in vivo potency to increase reticulocyte production in the Hayakawa assay.
To perform the experiment a total of 12 B6D2F1 female mice were used. The animals were administered Compound 2 (the compound was dissolved in water, pH 11, and administered by oral gavage) once a day for 7 days. At the end of the treatment period blood was collected from the animals and reticulocyte count was determined by known methods. (Hayakawa)

human hcp SH2 domain = experiment: ELISA-based SH2 domain / pY peptide binding assay, hcp SH2 domain; details: hcp SH2 domain versus src, lck, fyn, SH-PTP2, p85, Grb2 SH2 domains
Experimental: as §1
The fusion proteins containing the src, lck and hcp SH2 domains were expressed as the general sequence: DET1-DET2-spacer-ek-SH2, where DET1, DET2, spacer, ek and SH2 are as described below. DET1 ("defined epitope tag 1") (SEQ ID NO: 1) is an 11 amino acid sequence found in the Human Immunodeficiency Virus Type 1 (HIV-1) envelope protein gp120 (or gp160). Monoclonal antibodies to various epitopes of HIV-1 gp120 (or gp 160) are known in the art, see, for example U.S. Patent 5,166,050. One preferred example is monoclonal antibody 178.1 (see, e.g., Thiriart et al., J. Immunol., 143:1832-1836 (1989)), which was prepared by immunization of mice with a yeast-expressed HIV-1 gp160 molecule from strain BH10 (Ratner et al., Nature, 313:277-284 (1985)). This tag was used for detection of expression (by Western blot), for purification of the protein (by affinity chromatography), and for configuring assays in which the fusion protein was captured or immobilized using the 178.1 antibody. […]

| Compound | Ki (human src SH2 domain) | IC50 (human src SH2 domain) | Reticulocytes (B6D2F1 female mice; 200 mg/kg/day) | Reticulocytes (B6D2F1 female mice; 400 mg/kg/day) | Reticulocytes (B6D2F1 female mice; 800 mg/kg/day) | binding affinities/inhibitory concentrations at the hcp SH2 domain than at other SH2 domains (human hcp SH2 domain) |
| --- | --- | --- | --- | --- | --- | --- |
| 4-acetamido-benzamido-trans-4-methyl-cyclohexyl-N-1-(amino-R-2-(methoxy methyl)-pyrrolidine) carboxamide [Compound 8] | 12 µM | 16 µM |  |  |  |  |
| Cc1nnc(SCC2=C(C(=O)O)N3C(=O)[C@@H](NC(=O)C(N)c4ccc(C(=O)O)cc4)[C@H]3SC2)s1 (stereo partly drawn) [Compound 1, 7-[D,L-α-Amino-α-(4-carboxyphenyl)acetamido]-3-[2-(5-methyl-1,3,4-thiadiazolyl)thiomethyl]Δ^3-cephem-4-carboxylic Acid] | 7 µM | 6 µM |  |  |  |  |
| N[C@@H](Cc1cc(Br)c(Oc2ccc(O)c(Cc3ccc(=O)[nH]n3)c2)c(Br)c1)C(=O)O [Compound 2, L-3,5-Dibromo-3'-(6-oxo-3(1H)-pyridazinylmethyl)-thyronine] |  |  | 321.0 ± 46.3 10^9/L | 310.8 ± 24.8 10^9/L | 375.2 ± 51.6 10^9/L |  |
| Cc1nc2sc3c(c2c2[nH][nH]c(=O)c12)CCC1(C3)OCCO1 [Compound 3, 8,8-Ethylenedioxy-2,3,7,8,9,10-hexahydro-4-methyl-1H-benzo[b]thieno[2,3-b]pyrazolo[3,4-d]pyridin-3-one] | 6 µM | 16.1 µM |  |  |  |  |
| Cc1ccc(C(=O)c2ccc(C(=O)c3ccc(CC=O)cc3)cc2)cc1 [Compound 4, 4-[4-(4-Methylbenzoyl)benzoyl]phenylacetaldehyde] | 40 µM | 40 µM |  |  |  |  |
| Cc1nc2sc3c(c2c2c1c(=O)[nH]n2C)CCC1(C3)OCCO1 [Compound 5, 1,4-Dimethyl-8,8-ethylenedioxy-2,3,7,8,9,10-hexahydro-1H-benzo[b]thieno[2,3-b]pyrazolo[3,4-d]pyridin-3-one] | 28 µM | 63 µM |  |  |  | greater than fifty-fold higher; also recorded: greater than one hundred-fold higher |
| CCCNC(=O)[C@H]1CC[C@H](CNC(=O)/C=C/c2ccc(C=O)cc2)CC1 [Compound 9, 4-formyl-E-cinnamido-trans-4-methyl-cyclohexyl-N-(propyl) carboxamide] | 55 µM | 131 µM |  |  |  |  |
